Data taken from patent US20060252800A1, “Anti-leishmania agent” (priority 2003, published 2006).
pIC50: −log10 of the molar value.

Tested on: Leishmania (L. major)
Test: Leishmania protozoa proliferation inhibition assay
Format: cell-based
Settings: for OD level (number of viable Leishmania protozoa): 48 hours at 27° C., absorbance 450 nm minus 630 nm; for pIC50: calculated from the graphs of FIGS. 1 to 4 (concentration vs number of viable leishmania protozoa), read-out: Concentration inhibiting 50% leishmania proliferation
Method: After dissolving each of the obtained compounds in dimethylsulfoxide (hereinafter referred to as DMSO), the resultant was diluted by 9 steps in Medium 199 medium (Invitrogen) to the indicated concentration, filtrated with a membrane filter, and each of the filtration was made as a sample solution. […] By keeping the solution at 27° C., incubation was performed under 5% CO2, for 48 hours. Then, TetraColor ONE (tradename: Seikagaku Corporation) reagent was added thereto and further incubated for 6 hours. Then, the absorbance at a wavelength of 450 nm was measured for the 96-well microtiter plate with a microplate reader, the wave length of 630 nm was made as reference wave length, and in order to exclude background effect, the absorbance at 630 nm was excluded from the one at 450 nm, and the OD level was calculated as a level to indicate the number of viable Leishmania protozoa. The assay was performed by three wells at a time for each concentration of each sample, and the mean level was made as OD level. […] Amphotericin B was used as positive control. […] Inhibiting effect against […] protozoa for each sample was similar or more compared with that of Amtephotericin B.

[1] = Table 1, sample concentration 0.001 mg/ml
[2] = Table 1, sample concentration 0.016384 mg/ml
[3] = Table 1, sample concentration 0.04096 mg/ml
[4] = Table 1, sample concentration 0.1024 mg/ml
[5] = Table 1, sample concentration 0.256 mg/ml
[6] = Table 1, sample concentration 0.64 mg/ml
[7] = Table 1, sample concentration 1.6 mg/ml
[8] = Table 1, sample concentration 4 mg/ml
[9] = Table 1, sample concentration 10 mg/ml
[10] = Table 1, sample concentration 25 mg/ml, mean of three wells
[11] = Table 3, sample concentration 0.001 mg/ml
[12] = Table 3, sample concentration 0.002165 mg/ml
[13] = Table 3, sample concentration 0.0072171 mg/ml
[14] = Table 3, sample concentration 0.02406 mg/ml
[15] = Table 3, sample concentration 0.08019 mg/ml
[16] = Table 3, sample concentration 0.2673 mg/ml
[17] = Table 3, sample concentration 0.891 mg/ml
[18] = Table 3, sample concentration 2.97 mg/ml
[19] = Table 3, sample concentration 9.9 mg/ml
[20] = Table 3, sample concentration 33 mg/ml

| Compound | OD level (number of viable Leishmania protozoa) [1] | OD level (number of viable Leishmania protozoa) [2] | OD level (number of viable Leishmania protozoa) [3] | OD level (number of viable Leishmania protozoa) [4] | OD level (number of viable Leishmania protozoa) [5] | OD level (number of viable Leishmania protozoa) [6] | OD level (number of viable Leishmania protozoa) [7] | OD level (number of viable Leishmania protozoa) [8] | OD level (number of viable Leishmania protozoa) [9] | OD level (number of viable Leishmania protozoa) [10] | pIC50 | OD level (number of viable Leishmania protozoa) [11] | OD level (number of viable Leishmania protozoa) [12] | OD level (number of viable Leishmania protozoa) [13] | OD level (number of viable Leishmania protozoa) [14] | OD level (number of viable Leishmania protozoa) [15] | OD level (number of viable Leishmania protozoa) [16] | OD level (number of viable Leishmania protozoa) [17] | OD level (number of viable Leishmania protozoa) [18] | OD level (number of viable Leishmania protozoa) [19] | other results |
| --- | --- | --- | --- | --- | --- | --- | --- | --- | --- | --- | --- | --- | --- | --- | --- | --- | --- | --- | --- | --- | --- |
| CCn1c(=Cc2sc3ccccc3[n+]2CC)sc(=c2sc(=C3Sc4ccccc4N3C)c(=O)n2CC)c1=O.[Br-] [IV (e), 2-[[5-{5′-(3″-methyl-2″ (3″H)-benzothiazolylidene)-4′-oxo-3′-ethyl-2′-thiazolidinylidene)-4-oxo-3-ethyl-2-thiazolidinylidene]methyl]-3-ethylbenzothiazolium=bromide] | 0.463 | 0.445 | 0.220 | 0.159 | 0.056 | 0.035 | 0.030 | 0.030 | 0.032 | 0.033 | 7.21 |  |  |  |  |  |  |  |  |  |  |
| CCn1c(=O)/c(=C2\Sc3ccccc3N2C)s/c1=C\c1cccc[n+]1Cc1ccc(C(=O)O)cc1.[Br-] [I (d), 1-(p-carboxyphenyl)methyl-2-[3-ethyl-{5-(3-methyl-2(3H)-benzothiazolylidene)-4-oxo-2-thiazolidinylidene}methyl]pyridinium=bromide] |  |  |  |  |  |  |  |  |  |  | 5.28 |  |  |  |  |  |  |  |  |  | OD level (number of viable Leishmania protozoa) (Table 2, sample concentration 0.0001 mg/ml): 0.360; OD level (number of viable Leishmania protozoa) (Table 2, sample concentration 0.0007 mg/ml): 0.359; OD level (number of viable Leishmania protozoa) (Table 2, sample concentration 0.002 mg/ml): 0.348; OD level (number of viable Leishmania protozoa) (Table 2, sample concentration 0.008 mg/ml): 0.364; OD level (number of viable Leishmania protozoa) (Table 2, sample concentration 0.025 mg/ml): 0.384; OD level (number of viable Leishmania protozoa) (Table 2, sample concentration 0.084 mg/ml): 0.346; OD level (number of viable Leishmania protozoa) (Table 2, sample concentration 0.279 mg/ml): 0.360; OD level (number of viable Leishmania protozoa) (Table 2, sample concentration 0.93 mg/ml): 0.333; OD level (number of viable Leishmania protozoa) (Table 2, sample concentration 3.1 mg/ml): 0.242; OD level (number of viable Leishmania protozoa) (Table 2, sample concentration 2E−04 mg/ml): 0.356 |
| CCn1c(=Cc2cccc[n+]2CC)sc(=C2Sc3ccccc3N2C)c1=O.[Cl-] [IV (i), 2-[{5-(3-methyl-2(3H)-benzothiazolylidene)-4-oxo-3-ethyl-2-thiazolidinylidene}methyl]-1-ethylpyridinium=chloride] | 0.451 | 0.504 | 0.482 | 0.478 | 0.153 | 0.086 | 0.039 | 0.033 | 0.030 | 0.026 | 6.34 |  |  |  |  |  |  |  |  |  |  |
| CN1/C(=C\c2cccc[n+]2C)Sc2ccccc21 [V (a), 2-[(3-methyl-2(3H)-benzothiazolylidene)methyl]-1-methylpyridinium=p-toluenesulfonate] | 0.464 | 0.615 | 1.237 | 0.596 | 0.139 | 0.046 | 0.032 | 0.029 | 0.031 | 0.032 | 6.31 |  |  |  |  |  |  |  |  |  |  |
| CCn1c(=Cc2cccc[n+]2C)sc(=C2Sc3ccc(Cl)cc3N2C)c1=O.Cc1ccc(S(=O)(=O)[O-])cc1 [IV (f), 2-[{5-(5-chloro-3-methyl-2(3H)-benzothiazolylidene)-4-oxo-3-ethyl-2-thiazolidinylidene}methyl]-1-methylpyridinium=p-toluenesulfonate] |  |  |  |  |  |  |  |  |  |  | 6.27 | 0.352 | 0.388 | 0.369 | 0.384 | 0.428 | 0.214 | 0.116 | 0.081 | 0.064 | OD level (number of viable Leishmania protozoa) [20]: 0.038 |
| CCn1c(=Cc2sc3ccccc3[n+]2C)sc(=C2Sc3ccc4ccccc4c3N2C)c1=O.Cc1ccc(S(=O)(=O)[O-])cc1 [IV (m), 2-[{5-(3-methyl-2(3H)-benzobenzo[e]thiazolilidene)-4-oxo-3-ethyl-2-thiazolidinylidene}methyl]-1-methylbenzothiazolium=p-toluenesulfonate] |  |  |  |  |  |  |  |  |  |  | 5.57 | 0.340 | 0.344 | 0.342 | 0.354 | 0.379 | 0.422 | 0.385 | 0.149 | 0.033 | OD level (number of viable Leishmania protozoa) [20]: 0.027 |
